Source: patent US8278033B2, “Efficient well being assessment and improved treatment protocol” (priority 2008, dated 2012)
Values joined by “and” are separate entries in the source; they are usually repeats but may differ in a detail not shown here. Equal entries are not always repeated.

How the values were obtained:
[1] = test system: vascular endothelial growth factor (VEGF); test: Level of VEGF in tumor cell cultures (optical density 450 nm minus 570 nm); type: cell-based, human
Description: The observed ability of EtOH/DMSO to effect killing of microvascular/endothelial cells may be due to the ability of these solvents to reduce the levels of VEGF in cell culture. It is known that tumor cells secrete VEGF and VEGF is needed, for the growth of neovasculature. Accordingly, a number of tumor cell cultures were treated with these solvents. The level of VEGF in the cultures was measured by subtracting the optical density at 570 nm from the optical density of 450 nm.
For tumor samples preserved in 10% DMSO, only very low levels of VEGF were observed. […] Of particular interest are the cells from Patient 6, shown at the end of the table.

[2] = test system: tumor cells; settings: microaggregates of tumor biopsies, WO 2007/075440; cited from earlier work
[3] = test system: endothelial cells; test: Anti-microvascular effects in non-Hodgkin's Lymphoma lymph node biopsy culture (ImageJ and manual scores); type: cell-based, human; settings: for anti-microvascular activity (in words) / concentration at which anti-angiogenic cell effects were achievable: NHL lymph node biopsy sample; for anti-microvascular activity (in words): FIG. 6; for concentration at which anti-angiogenic cell effects were achievable: FIG. 7
Text: (§1) A lymph node biopsy was obtained from a non-Hodgkin's Lymphoma patient and processed and stained as described above. […] The cells can also be imaged using publicly available “ImageJ” software available from the National Institutes of Health (NIH) to assist quantitation. The image is converted to 8-bit black and white threshold gated to paint only the dead endothelial cells.
The raw scores for the gated features (putative dead endothelial cells) are normalized for uneven cell distributions by image analyzing each area twice: first with the detection threshold set to gate only the features of interest (putative dead endothelial cells) and then again to detect all features on the slide (this would be analogous to normalizing gene copy to total DNA in cell extracts).

[4] = test system: tumor cells; test: Direct antitumor (AT) score on slides of tumor cell cultures; type: cell-based, human; settings: direct antitumor effects; concentrations as in Table 1
Description: (§2) Solid tumors are minced to pieces smaller than 1 mm (small enough to be aspirated into a standard disposable 10 ml pipette) with high quality curved surgical scissors. Medium in which said tumors may have been transported is reserved, along with the supernatant from the tissue mince. Scissor-minced tumor pieces are digested with collagenase/DNase in RPMI-1640 containing antibiotics and 10% fetal calf serum. Specimens are digested in 50 ml disposable polypropylene centrifuge tubes, assisted by gentle mixing with plastic-coated, magnetic stirring bars over a stirring plate. Specimens are thusly mixed until complete gross digestion has taken place—typically about 2-3 hours for a 1-3 gram specimen. Cytospin slides are then prepared from all cell fractions (transport medium, supernatant from tissue mince, and enzyme digestate), and stained with fast green-H&E, as described previously (Weisenthal, et al., “A Novel Dye Exclusion Method for Testing in vitro Chemosensitivity of Human Tumors,” Cancer Res. (1983) 43:749-757).
To assay for endothelial cells are mixed with, for example, 10% (volume/volume) or, for example, 1% (volume/volume) or intermediate percentages of antiangiogenic drug containing solution or vehicle control (most typically 0.9% NaCl). Final volume of cell suspension/drug solution (or vehicle) plated for culture can be 0.12 ml. Culturing is in polypropylene round bottom, 96-well culture dishes in a humidified 37° C. incubator for a standardized duration of time.
Cells are cultured with the index concentration of each drug and, if desired, with dilutions of the index concentration, where the index concentration is determined from training set assays or from the literature. Negative controls generally consist of 0.9% NaCl, and/or the vehicle in which an antiangiogenic drug is dissolved. Replicate 96-well plates are tested.
(§3) For this determination, the results provided in Table 1 are 10× multiples of the scoring system of the previous paragraph.
(§4) The scores provided in FIG. 2 were multiplied by 10 and averaged to give an anti-vascular score (AVS) shown in column 2; the average AVS for the vehicle alone (VAVS) is shown in column 3 and the level of the statistical significance of their difference is shown in column 4. The AVS score was corrected for the effect of vehicle by subtraction as shown in column 5. The antitumor score (AT) is shown in column 6.

[5] = test system: endothelial cells; test: Anti-vascular score (AVS) on Fast Green/H&E slides of tumor cell cultures, averaged over paired comparisons; type: cell-based, human; set-up: key to Anti-Vascular Score (AVS) (Avg): 10x the 0+ to 5+ anti-microvascular score (max 50); key to AVS minus VAVS (Avg): AVS minus vehicle AVS, on 10x the 0+ to 5+ scale; settings: for Anti-Vascular Score (AVS) (Avg): 10x multiples of the 0+ to 5+ score, average of N paired comparisons, bevacizumab 2.5 mg/ml, DMSO 0.5% + EtOH 0.5%, cisplatin 3.3, sunitinib 8.35, gefitinib 22.35, erlotinib 89.4, sorafenib 12.5, imatinib 12.5 μg/ml; for AVS minus VAVS (Avg): AVS corrected for the effect of vehicle by subtraction; for AVS minus VAVS (Avg) / (AVS − VAVS)/AT Ratio (Avg): concentrations as in Table 1; for (AVS − VAVS)/AT Ratio (Avg): ratio of vehicle-corrected AVS to antitumor score
Description: as §2
Final volume of cell suspension/drug solution (or vehicle) plated for culture can be 0.12 ml. Culturing is in polypropylene round bottom, 96-well culture dishes in a humidified 37° C. incubator for a standardized duration of time.
Cells are cultured with the index concentration of each drug and, if desired, with dilutions of the index concentration, where the index concentration is determined from training set assays or from the literature. […] Replicate 96-well plates are tested.
The various drugs were rated by scoring on a 0+ to 5+ scale for the anti-microvascular effects, with 5+ being the highest possible score. […] The “nib” drugs are kinase inhibiting drugs.
as §3, §4
Finally, the ratio of AVS (corrected for the effect of vehicle) to the antitumor score is shown in the last column.

[6] = test system: endothelial cells; test: Anti-microvascular effect scoring, Fast Green/H&E stained pancreatic carcinoid tumor suspension culture; type: cell-based, human
Description: as §2
Final volume of cell suspension/drug solution (or vehicle) plated for culture can be 0.12 ml. […]
Cells are cultured with the index concentration of each drug and, if desired, with dilutions of the index concentration, where the index concentration is determined from training set assays or from the literature. […]

[7] = test system: endothelial cells; settings: microaggregates of tumor biopsies, WO 2007/075440; cited from earlier work
[8] = test system: endothelial cells; test: Endothelial cell death in cultured peripheral blood chronic lymphocytic leukemia cells; type: cell-based, human; settings: peripheral blood CLL cells cultured 4 days, 2.5 mg/ml
Text: They are readily apparent as refractile, angular small cells of smaller dimension than the surrounding cells. These cells are about one-third the size of lymphocytes and are about 3μ in diameter.

[9] = test system: endothelial cells; test: Endothelial cell killing by drugs and combinations in a poorly differentiated breast cancer specimen; type: cell-based, human; settings: for effectiveness in endothelial cell killing (in words): Fast Green/H&E
Text: A specimen of poorly differentiated breast cancer was used in the procedures set forth in the previous examples and tested with various drugs and drug combinations as described above.

[10] = test system: non-Hodgkin's Lymphoma (NHL) cells; test: Direct antitumor cell effects in non-Hodgkin's Lymphoma lymph node biopsy culture; type: cell-based, human; settings: NHL lymph node biopsy sample, FIG. 6
Text: as §1
(§5) The objective, automated ImageJ scores for both individual gated features and also for total area (originally in pixels squared) is shown. The raw scores for the gated features (putative dead endothelial cells) are normalized for uneven cell distributions by image analyzing each area twice: first with the detection threshold set to gate only the features of interest (putative dead endothelial cells) and then again to detect all features on the slide (this would be analogous to normalizing gene copy to total DNA in cell extracts). Shown additionally are the subjective (0+ to 5+) manual anti-vascular scores which were obtained one month before the installed the ImageJ software was installed. Shown additionally are the direct antitumor cell effects of each of the drugs and solvents tested.

[11] = test system: endothelial cells; test: ImageJ quantitation of dead endothelial cells in cultured lymph samples; type: cell-based, human; settings: all of the lymphoma patients
Text: as §1, §5
Lymph samples from five lymphoma patients and two normal volunteers were cultured and stained as described above. […] The quantitation of results was as described in Example 4 using ImageJ software.

bevacizumab
450-570 O.D. (level of VEGF) ([1]; Pt 1 cells (Merkel tumor, 10% DMSO cryopreserved), 1.25 mg/ml, wells #1-#3, listed as Bev): 0.054 and 0.059
450-570 O.D. (level of VEGF) ([1]; Pt 1 cells (Merkel tumor, 10% DMSO cryopreserved), 2.5 mg/ml, wells #1-#3, listed as Bev): 0.051 and 0.052 and 0.054
450-570 O.D. (level of VEGF) ([1]; Pt 2 cells (ovarian, 10% DMSO cryopreserved), 1.25 mg/ml, wells #1-#3, listed as Bev): 0.059 and 0.055 and 0.054
450-570 O.D. (level of VEGF) ([1]; Pt 2 cells (ovarian, 10% DMSO cryopreserved), 2.5 mg/ml, wells #1-#3, listed as Bev): 0.052 and 0.056 and 0.054
450-570 O.D. (level of VEGF) ([1]; Pt 3 cells (breast, fresh), 2.5 mg/ml, wells #1-#2, listed as Bev): 0.056 and 0.059
450-570 O.D. (level of VEGF) ([1]; Pt 4 cells (NHL, fresh), 1.25 mg/ml, wells #1-#2, listed as Bev): 0.074 and 0.068
450-570 O.D. (level of VEGF) ([1]; Pt 4 cells (NHL, fresh), 2.5 mg/ml, wells #1-#2): 0.055
450-570 O.D. (level of VEGF) ([1]; Pt 5 cells (breast, fresh), 2.5 mg/ml, well #1): 0.053
450-570 O.D. (level of VEGF) ([1]; Pt 6 cells (breast, fresh), 1.25 mg/ml, well #1): 0.063
450-570 O.D. (level of VEGF) ([1]; Pt 6 cells (breast, fresh), 2.5 mg/ml, well #1): 0.052
levels of VEGF (in words) ([1]; fresh breast tumor cells, untreated levels off-scale): could be brought to 0
effect on tumor cells (in words) [2]: tumor cells remain unaffected
dead endothelial cells (200x view) ([3]; NHL lymph node biopsy cells cultured 4 days): presence of dead endothelial cells is readily apparent
Anti-Tumor (AT) Score (Avg) [4]: 12.9
Anti-Vascular Score (AVS) (Avg) [5]: 24.7
AVS minus VAVS (Avg) [5]: 19.7
endothelial cell death (appearance after Fast Green/H&E) ([6]; pancreatic carcinoid tumor, 96 hours in suspension culture, 2.5 mg/ml): resulting in endothelial cell death
effect on endothelial cells (in words) [7]: endothelial cells showing up dead
endothelial cell death [8]: caused endothelial cell death
anti-microvascular score ([9]; drug alone): +1
direct antitumor activity (in words) [10]: essentially no direct antitumor effects
visibility of endothelial cells (in words) [11]: greatly enhanced

C#Cc1cccc(Nc2ncnc3cc(OCCOC)c(OCCOC)cc23)c1 [Erlotinib, erlotinib]
anti-microvascular activity (in words) [3]: comparable to those of vehicle alone
Anti-Tumor (AT) Score (Avg) [4]: 22.5
Anti-Vascular Score (AVS) (Avg) [5]: 16.2
AVS minus VAVS (Avg) [5]: 4.2
(AVS − VAVS)/AT Ratio (Avg) [5]: 0.19
effectiveness in endothelial cell killing (in words) [9]: None appeared particularly effective
direct antitumor activity (in words) [10]: to a lesser extent, erlotinib acted directly on tumor cells

N.N.[Cl][Pt][Cl] [Cisplatin]
Anti-Tumor (AT) Score (Avg) [4]: 59.2
Anti-Vascular Score (AVS) (Avg) [5]: 4.5
AVS minus VAVS (Avg) [5]: 0.6
(AVS − VAVS)/AT Ratio (Avg) [5]: 0.01

COc1cccc2c1C(=O)c1c(O)c3c(c(O)c1C2=O)C[C@@](O)(C(=O)CO)C[C@@H]3O[C@H]1C[C@H](N)[C@H](O)[C@H](C)O1 [doxorubicin]
anti-microvascular activity (in words) [3]: relatively ineffective as anti-microvascular agents
direct antitumor activity (in words) [10]: direct antitumor effects

Cc1ccc(NC(=O)c2ccc(CN3CCN(C)CC3)cc2)cc1Nc1nccc(-c2cccnc2)n1 [Imatinib, imatinib]
anti-microvascular activity (in words) [3]: comparable to those of vehicle alone
Anti-Tumor (AT) Score (Avg) [4]: 23.6
AVS minus VAVS (Avg) [5]: 2.8
effectiveness in endothelial cell killing (in words) [9]: None appeared particularly effective
direct antitumor activity (in words) [10]: acted directly on tumor cells

CCO [ethanol]
concentration at which anti-angiogenic cell effects were achievable [3]: 0.125 % of the final medium

C[S+](C)[O-] [DMSO]
concentration at which anti-angiogenic cell effects were achievable [3]: 0.125 % of the final medium

COc1cc2ncnc(Nc3ccc(F)c(Cl)c3)c2cc1OCCCN1CCOCC1 [Gefitinib, gefitinib]
Anti-Tumor (AT) Score (Avg) [4]: 28.5
Anti-Vascular Score (AVS) (Avg) [5]: 8.3
AVS minus VAVS (Avg) [5]: 4.5
(AVS − VAVS)/AT Ratio (Avg) [5]: 0.16
anti-microvascular effects score (0+ to 5+ scale) ([6]; pancreatic carcinoid tumor suspension culture, bevacizumab at 2.5 mg/ml, Fast Green/H&E): 0

CCN(CC)CCNC(=O)c1c(C)[nH]c(/C=C2\C(=O)Nc3ccc(F)cc32)c1C [Sunitinib, sunitinib]
Anti-Tumor (AT) Score (Avg) [4]: 25.8
Anti-Vascular Score (AVS) (Avg) [5]: 9.5
AVS minus VAVS (Avg) [5]: 4.9
(AVS − VAVS)/AT Ratio (Avg) [5]: 0.19

CNC(=O)c1cc(Oc2ccc(NC(=O)Nc3ccc(Cl)c(C(F)(F)F)c3)cc2)ccn1 [Sorafenib, sorafenib]
anti-microvascular activity (in words) [3]: comparable to those of vehicle alone
Anti-Tumor (AT) Score (Avg) [4]: 28.7
AVS minus VAVS (Avg) [5]: 1.4
direct antitumor activity (in words) [10]: acted directly on tumor cells
